Test results as given in publication PMC4519959, “Baicalin Protects Mice from Aristolochic Acid I-Induced Kidney Injury by Induction of CYP1A through the Aromatic Hydrocarbon Receptor” (International Journal of Molecular Sciences, 2015).

Columns and labels:
[1] = Pharmacokinetics of AAI and AAIa in mouse plasma (HPLC); assay type: in vivo, C57BL/6 mice; conditions: for AUC / Cmax / Tmax / t1/2: AAI in mouse plasma
From the text: AAIa is the major metabolite of AAI oxidative metabolism by CYP1A. We studied the pharmacokinetics of AAI and its metabolites in vivo. […] Simultaneously, the level of AAIa, the major metabolite of AAI, was higher in the plasma of the baicalin-pretreated group than that in the AAI group (Figure 3B).
(§1) Figure 3 Levels of AAI and its major metabolite AAIa in the plasma, liver, and kidney. Blood samples were collected from mice at the indicated time points after AAI injection. Plasma levels of AAI (A) and AAIa (B) were measured by high-performance liquid chromatography (HPLC); Tissue samples from mice were collected at 30 min after AAI injection to determine the levels of AAI (C) and AAIa (D).
(§2) Blood samples (40 μL each) were collected in heparin-coated capillaries and mixed with 50 μL saline. The samples were spun at 3000× g for 10 min at 4 °C. Tissue samples were homogenized in saline and spun at 14,000× g for 10 min, and the supernatants were then mixed with 100 μg/mL (final concentration) indomethacin (internal standard, IS) and 2 volumes of methanol and spun again at 14,000× g for 5 min to remove precipitated proteins. Aliquots of the final supernatants were analyzed and quantified for the levels of AAI and its metabolite AAIa by high-performance liquid chromatography (HPLC), as described below.
The quantification of AAI and its metabolite AAIa was carried out with a Waters 9625 HPLC system (Sunnyvale, CA, USA). For AAI, the linear ranges of the calibration curves were 0–100 μg/mL in the plasma, liver, and kidney, the regression equations were y = 32.186x + 1.1609 (r^2 = 0.9992), y = 38.261x − 1.2753 (r^2 = 0.9688), and y = 80.334x + 1.7436 (r^2 = 0.9987), respectively, where y is the peak area and x is the concentration of the analyte. The identity of AAIa was confirmed with synthesized standards provided by Minghua Xu (Shanghai Institute of Materia Medica, Shanghai, China).

AAI-induced renal damage = test: AAI nephrotoxicity in mice (serum BUN, CRE, kidney H&E histopathology); assay type: in vivo, C57BL/6 mice
From the text: Mice were pretreated with baicalin for three days.
Figure 2 Effects of baicalin on aristolochic acid I (AAI) nephrotoxicity. Blood samples were collected to obtain serum for the measurement of blood urea nitrogen (BUN) (A) and creatinine (CRE) (B); (C) Kidneys were collected to perform hematoxylin and eosin (H&E) staining. Arrowheads, tubular dilation; stars, tubular necrosis and granular casts. Scale bar, 100 μm.
Male C57BL/6 mice (6–7 weeks old, 20–22 g) were obtained from Shanghai Laboratory Animal Center. All animal experiments were approved by the Shanghai Animal Care and Use Committee (Certificate No. SCXK [Shanghai] 2002-0010). […] Each group received different treatments as defined in Figure 7. Blood and liver tissues were collected and stored at −80 °C until use. Serum blood urea nitrogen (BUN) and creatinine (CRE) were measured by an automatic HITACHI Clinical Analyzer Model 7080 (Hitachi, Tokyo, Japan).
Kidneys were collected at the indicated time points and fixed in 10% formalin solution before being embedded in paraffin for sectioning into 5-μm-thick sections. Sections were stained with hematoxylin and eosin (H&E) using standard pathology procedures and evaluated by a pathologist as described previously.

[2] = test system: X2 (−21,148 to −24,409 of CYP1A1) segment of the CYP1A promoter; test: Luciferase reporter assay pGL4.10-X2 in HepG2 cells; assay type: cell-based, human; conditions: baicalin 1, 10 or 50 μM, BNF 50 μM, normalized to renilla luciferase
From the text: (§3) Two pGL4.10 luciferase plasmids containing X1 (+1 to −2867 of CYP1A1) and X2 (−21,148 to −24,409 of CYP1A1; Figure 6A) segments were transfected into HepG2 cells to investigate the effects of baicalin.
(§4) Figure 6 Effects of baicalin on the AhR-mediated activation of different segments of the CYP1A promoter in HepG2 cells. (A) Location of two insert segments, X1 and X2; and (B) Effects of baicalin and BNF on the luciferase activity of pGL4.10-X1; (C) Effects of baicalin and BNF on the luciferase activity of pGL4.10-X2. Luciferase activity was determined by firefly luciferase assay with data normalized to renilla luciferase activity. The results are expressed as the activity in drug treatment groups relative to that of the vehicle control. Each value is expressed as the mean ± SD. * p < 0.05, ** p < 0.01, *** p < 0.001 versus the plasmid only group. […]
(§5) HepG2 cells were seeded at a density of 1.0 × 10^5 cells/mL in 6-well plates to achieve ~50% confluence the next day and were then transfected with pGL4.10-X1/2 plasmids using Lipofectamine 2000 (Invitrogen). […] Thereafter, cells were collected and further assayed for firefly luciferase activity, which was normalized to the activity of renilla luciferase, using the Dual-Luciferase Reporter Assay System (Promega, Madison, WI, USA) and a Biotek Synergy 4 Microplate reader (Biotek, Winooski, VT, USA). […]

[3] = test system: X1 (+1 to −2867 of CYP1A1) segment of the CYP1A promoter; test: Luciferase reporter assay pGL4.10-X1 in HepG2 cells; assay type: cell-based, human; conditions: baicalin 1, 10 or 50 μM, BNF 50 μM, normalized to renilla luciferase
From the text: as §3, §4, §5

CYP1A2 [4] = assay type: cell-based, human; conditions: Fa2N-4 cells, DMF 2 μM with baicalin, 24 h
Experimental: (§6) The immortalized hepatocyte cell line Fa2N-4 (Xenotech, Kansas City, KS, USA) was maintained in BEGM Bullet kit medium with 10% heat inactivated fetal bovine serum (FBS) and 1% antibiotic-antimycotic solution (Invitrogen, Carlsbad, CA, USA) at 37 °C in a humidified atmosphere of 95% air and 5% CO2. Fa2N-4 cells were plated in 6-well plates to achieve ~80% confluence next day. Cells were collected at 24 h after treatment with vehicle or baicalin (0–100 μM) in the presence or absence of 3ʹ,4ʹ-DMF (2 μM).

CYP1A1 [5] = test: CYP1A1 mRNA and protein expression in Fa2N-4 cells (real-time PCR, Western blot); assay type: cell-based, human; conditions: 24 h
Experimental: as §6

CYP1A2 [6] = conditions: mice
CYP1A2 [7] = test: Screening of herbal compounds for CYP1A2 induction in Fa2N-4 cells (mRNA, real-time PCR); assay type: cell-based, human; conditions: 10 μM, compared among seven herbal compounds
Experimental: To screen CYP1A2 inducers, Fa2N-4 cells, a non-tumorigenic immortalized human hepatic cell line, were treated with seven different herbal compounds.
Figure 1 Screening of herbal compounds for their activities in inducing CYP1A2 in Fa2N-4 cells. Cells were pre-treated with candidate compounds at 10 μM. CYP1A2 mRNA was quantified by real-time PCR. con: control (negative control); 1: omeprazole (positive control); 2: kaempferide; 3: catalpol; 4: isorhamnetin; 5: ferulic acid; 6: ligustrazine; 7: astragaloside; 8: baicalin. *** p < 0.001 versus the negative control.
as §6

CYP1A1 [8] = test: Hepatic CYP1A1 mRNA and protein expression in mice; assay type: in vivo, mouse; conditions: baicalin 80 mg/kg daily for 3 days
[9] = Levels of AAI and AAIa in mouse liver and kidney (HPLC); assay type: in vivo, C57BL/6 mice; conditions: baicalin pretreatment; 30 min after AAI 10 mg/kg i.p.; versus AAI group
Experimental: as §1
To examine whether the change in pharmacokinetics of AAI upon baicalin pretreatment was due to changes in the tissue distribution of AAI, the levels of AAI and AAIa in the livers and kidneys were measured by HPLC.
as §2
The quantification of AAI and its metabolite AAIa was carried out with a Waters 9625 HPLC system (Sunnyvale, CA, USA). […]

[10] = AAI 10 mg/kg i.p. after baicalin 80 mg/kg daily for 3 days
[11] = AAI 10 mg/kg i.p. after baicalin 160 mg/kg daily for 3 days
[12] = baicalin pretreatment, then AAI 10 mg/kg i.p., versus AAI group
[13] = baicalin 80 or 160 mg/kg daily for 3 days, then AAI 10 mg/kg i.p. on day 4, versus AAI only

COc1cccc2c1cc([N+](=O)[O-])c1c(C(=O)O)cc3c(c12)OCO3 [AAI, aristolochic acid I]
AUC [1, 10]: 759.39 ± 23.26 ** min·μg/mL | Cmax [1, 10]: 4430 ± 240 ng/mL | Tmax [1, 10]: 10.00 ± 0 min | t1/2 [1, 10]: 77.96 ± 6.84 min | AUC [1, 11]: 710.07 ± 33.95 *** min·μg/mL | Cmax [1, 11]: 3890 ± 430 ng/mL | Tmax [1, 11]: 9 ± 2.24 min | t1/2 [1, 11]: 80.83 ± 3.02 min | AUC ([1]; AAI 10 mg/kg i.p., no baicalin): 844.96 ± 40.12 µg·min/mL | Cmax ([1]; AAI 10 mg/kg i.p., no baicalin): 4990 ± 410 ng/mL | Tmax ([1]; AAI 10 mg/kg i.p., no baicalin): 10.00 ± 0 min | t1/2 ([1]; AAI 10 mg/kg i.p., no baicalin): 78.68 ± 12.88 min | kidney lesions (H&E histopathology) (AAI-induced renal damage; AAI 10 mg/kg i.p., seven days after AAI administration): extensive tubular necrosis, and tubular dilation

O=c1cc(-c2ccccc2)oc2ccc3ccccc3c12 [BNF, β-Naphthoflavone, reference compound]
luciferase activity of pGL4.10-X2 relative to vehicle control [2]: increased the luciferase activity | luciferase activity of pGL4.10-X1 relative to vehicle control [3]: increased the luciferase activity

COc1ccc(-c2cc(=O)c3ccccc3o2)cc1OC [DMF, 3ʹ,4ʹ-dimethoxyflavone, reference compound]
effect on baicalin-induced CYP1A2 expression (CYP1A2 [4]): abolished | effect on baicalin-induced CYP1A1 expression (CYP1A1 [5]; DMF 2 μM with baicalin): abolished

Oc1ccc(/C=C/c2cc(O)cc(O)c2)cc1 [RES, resveratrol, reference compound]
effect on induction of hepatic CYP1A2 by baicalin (CYP1A2 [6]; RES 50 mg/kg with baicalin 80 mg/kg daily for 3 days): pronouncedly attenuated

O=C(O)[C@H]1O[C@@H](Oc2cc3oc(-c4ccccc4)cc(=O)c3c(O)c2O)[C@H](O)[C@@H](O)[C@@H]1O [baicalin]
CYP1A2 gene expression at the mRNA level (induction) (CYP1A2 [7]): most potent compound in inducing CYP1A2 gene expression | CYP1A2 expression in the liver at mRNA and protein level (CYP1A2 [6]; baicalin 80 mg/kg daily for 3 days): pronouncedly increased | CYP1A1 expression in the liver at mRNA and protein level (CYP1A1 [8]): pronouncedly increased | luciferase activity of pGL4.10-X2 relative to vehicle control [2]: increased the luciferase activity | effect of pretreatment on the level of AAI in livers and kidneys [9]: reduced levels | effect of pretreatment on the level of AAIa in livers and kidneys [9]: reduced levels | effect of pretreatment on the level of AAI in mice (plasma, AUC) [1, 12]: markedly decreased | effect of pretreatment on the level of AAIa in the plasma [1, 12]: higher | blood urea nitrogen (BUN) induced by AAI (AAI-induced renal damage; [13]): significantly reduced | creatinine (CRE) induced by AAI (AAI-induced renal damage; [13]): significantly reduced | kidney lesions (H&E histopathology) (AAI-induced renal damage; baicalin pretreatment for 3 days, then AAI 10 mg/kg i.p., versus AAI group): fewer lesions | luciferase activity of pGL4.10-X1 relative to vehicle control [3]: increased the luciferase activity | CYP1A1 expression at mRNA and protein level (CYP1A1 [5]; 100 μM): increased | CYP1A1 expression (CYP1A1 [5]; 10 or 50 μM): relatively mild effect
